Key:
[1] = Cytotoxicity on uninfected mouse splenocytes (Alamar Blue); format: cell-based; settings: BALB/c, freshly isolated uninfected mouse splenocytes, non-infected mouse splenocytes, read-out: CC50 (μM) Murine Splenocytes
Description: Finally, the cytotoxicity of the compounds was assessed on freshly-isolated mouse splenocytes, which were obtained from uninfected BALB/c mice according to the protocol previously described. Viability of uninfected splenocytes was used to determine the cytotoxic concentration 50 (CC50) by means of the Alamar Blue staining method, according to manufacturer's recommendations (Invitrogen). Selectivity index (SI) for each compound was calculated as the ratio between the CC50 value obtained for splenic cells and the EC50 value for amastigotes.

[2] = test system: histone H2A (Thr128) in L. infantum promastigotes; assay: Histone H2A phosphorylation (γH2A) by Western blot; format: cell-based, Leishmania infantum; settings: 10 μM, 0, 15, 60, 120 min
Description: To detect H2A phosphorylation by L. infantum promastigotes, parasites in exponential growing phase (5–6 x 10^6 cells/mL) were incubated at 26 °C with CPT derivatives and indenoisoquinolines at a final concentration in the supplemented 199 standard medium of 10 μM. Control cells were treated with the drug vehicle DMSO using concentrations below 0.1%. After 0, 15, 60 and 120-min incubations, promastigotes were harvested by centrifugation, washed twice in PBS and the pellet resuspended in lysis buffer containing 50 mM Tris (pH:7), 50 mM NaCl, 20 mM NaF, 0.1% Tween 20 and 2x protease inhibitors (PIERCE™ protease inhibitor mini tablets). Twenty micrograms of the different extracts were loaded onto 15% SDS-PAGE gels, electrophoresed and transferred to PVDF membranes (Immobilon-FL, Millipore) using a mini trans-blot electrophoretic transfer cell (Bio-Rad). Polyclonal γH2A antisera were used at a 1:2000 dilution and secondary goat anti-rabbit IgG IRDye680 (Li-Cor Biosciences) was used at a 1:15000 dilution. The peptide competition assay was done incubating the polyclonal γH2A antisera with 50 ng/mL of the appropriate peptide (with and without phosphorylation at Thr residue) in blocking buffer for 1 h at room temperature before blotting. Loading control was performed using a monoclonal α tubulin mouse antibody at 2 μg/mL (final concentration) and a goat anti-mouse IgG IRDye 800 (Li-Cor Biosciences) as secondary antibody. Bands were visualized in an Odissey® (Li-Cor Biosciences) infrared detection facility. The quantification of γH2A signal was done with Bio-Rad Quantity One Analysis Software.

[3] = test system: TopIB-DNA complexes in L. infantum promastigotes; assay: SDS/K-DNA precipitation (in situ cleavage complex formation); format: cell-based, Leishmania infantum; settings: highest concentration 30 μM, 30 min, data not shown
Description: In order to measure the fragmentation of DNA induced by Top poisons, L. infantum promastigotes, previously labeled with 0.5 mCi/mL [2–^14C] thymidine for 24 h, were exposed to different concentrations of indenoisoquinolines for 30 min, followed by precipitation with SDS/KCl, according to the method described previously ([Balaña-Fouce et al., 2012]). DNA fragmentation was determined as the percentage of total labeled DNA, and was calculated as follows: [(dpm in SDS/KCl drug - dpm in SDS/KCl solvent)/(dpm total incorporation)] x 100. Each experiment was run at least in triplicate.

## NCCCn1c2c(c3ccccc3c1=O)C(=O)c1ccccc1-2 [Compound 2]
[1]
  CC50: 0.59 ± 0.28 µM
[2]
  γH2A signal (H2A phosphorylation), Western blot: strong γH2A signaling
[3]
  protein-DNA complexes (SDS/K-DNA precipitable): 10%
